pIC50: −log10 of the molar value.
Molecular target: human recombinant GPR65 (Homo sapiens, UniProt Q8IYL9)
Assay: Human GPR65 cAMP HTRF antagonist assay
Format: cell-based
Outline: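 Antagonism measured as suppression of the cAMP rise when pH is dropped to 7.2 (control wells pH 7.9) in 1321N1 cells stably carrying human GPR65. Cells in KRH with 1 mM IBMX and 200 μM EDTA saw compound 30 min, then acid stimulation 30 min; HTRF cAMP detection, normalised, 4-parameter logistic IC50.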

human recombinant GPR65, sequence (Q8IYL9 whole entry): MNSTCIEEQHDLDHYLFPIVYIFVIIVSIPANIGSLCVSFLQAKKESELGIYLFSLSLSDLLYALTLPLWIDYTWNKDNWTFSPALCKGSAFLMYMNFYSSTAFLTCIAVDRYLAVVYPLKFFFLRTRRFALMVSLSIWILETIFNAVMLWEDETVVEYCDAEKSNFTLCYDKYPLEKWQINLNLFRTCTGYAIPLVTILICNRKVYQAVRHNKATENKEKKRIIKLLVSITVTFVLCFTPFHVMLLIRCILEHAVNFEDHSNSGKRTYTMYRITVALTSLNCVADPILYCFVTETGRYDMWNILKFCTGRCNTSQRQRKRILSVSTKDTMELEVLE

SMILES | pIC50
O=C(Nc1cc(Cl)c(I)cc1F)N1[C@H]2CC[C@@H]1c1c[nH]c(=O)cc1C2 [Compound 79, (6S,9R)-N-(5-Chloro-2-fluoro-4-iodophenyl)-3-oxo-3,5,6,7,8,9-hexahydro-2H-6,9-epiminocyclohepta[c]pyridine-10-carboxamide] | > 6.30
O=C(Nc1cc(Cl)c(-c2ccc(OC(F)F)nc2)cc1F)N1[C@H]2CC[C@@H]1c1n[nH]c(=O)cc1C2 [Compound 315, (6S,9R)-N-(5-Chloro-4-(6-(difluoromethoxy)pyridin-3-yl)-2-fluorophenyl)-3-oxo-3,5,6,7,8,9-hexahydro-2H-6,9-epiminocyclohepta[c]pyridazine-10-carboxamide] | > 6.30
COc1cc(-c2cc(F)c(NC(=O)N3[C@H]4CC[C@@H]3c3ccnc(F)c3C4)cc2Cl)ccn1 [Compound 264, (5R,8S)-N-(5-Chloro-2-fluoro-4-(2-methoxypyridin-4-yl)phenyl)-1-fluoro-6,7,8,9-tetrahydro-5H-5,8-epiminocyclohepta[c]pyridine-10-carboxamide] | > 6.30
CC(C)COc1ccc(-c2cc(F)c(NC(=O)N3[C@H]4CC[C@@H]3c3c[nH]c(=O)cc3C4)cc2Cl)cn1 [Compound 335, (6S,9R)-N-(5-Chloro-2-fluoro-4-(6-isobutoxypyridin-3-yl)phenyl)-3-oxo-3,5,6,7,8,9-hexahydro-2H-6,9-epiminocyclohepta[c]pyridine-10-carboxamide] | > 6.30
COc1ccc(-c2cc(F)c(NC(=O)N3[C@H]4CC[C@@H]3c3ccnc(F)c3C4)cc2Cl)c(F)n1 [Compound 214, (5R,8S)-N-(5-Chloro-2-fluoro-4-(2-fluoro-6-methoxypyridin-3-yl)phenyl)-1-fluoro-6,7,8,9-tetrahydro-5H-5,8-epiminocyclohepta[c]pyridine-10-carboxamide] | > 6.30
CC(C)Oc1ccc(-c2cc(F)c(NC(=O)N3[C@H]4CC[C@@H]3c3n[nH]c(=O)cc3C4)cc2Cl)cn1 [Compound 209, (6S,9R)-N-(5-Chloro-2-fluoro-4-(6-isopropoxypyridin-3-yl)phenyl)-3-oxo-3,5,6,7,8,9-hexahydro-2H-6,9-epiminocyclohepta[c]pyridazine-10-carboxamide] | > 6.30
O=C(Nc1cc(Cl)c(C(F)(F)F)cc1F)N1[C@@H]2CC[C@H]1[C@@H](F)c1c2ccnc1F [Compound 296, (5R,8S,9S)-N-(5-Chloro-2-fluoro-4-(trifluoromethyl)phenyl)-1,9-difluoro-6,7,8,9-tetrahydro-5H-5,8-epiminocyclohepta[c]pyridine-10-carboxamide] | > 6.30
Cc1ccc(-c2cc(F)c(NC(=O)N3[C@H]4CC[C@@H]3c3n[nH]c(=O)cc3C4)cc2Cl)cn1 [Compound 123, (6S,9R)-N-(5-Chloro-2-fluoro-4-(6-methylpyridin-3-yl)phenyl)-3-oxo-3,5,6,7,8,9-hexahydro-2H-6,9-epiminocyclohepta[c]pyridazine-10-carboxamide] | > 6.30
O=C(Nc1cc(Cl)c(-c2cnc(F)c(F)c2)cc1F)N1[C@H]2CC[C@@H]1c1c[nH]c(=O)cc1C2 [Compound 261, (6S,9R)-N-(5-Chloro-4-(5,6-difluoropyridin-3-yl)-2-fluorophenyl)-3-oxo-3,5,6,7,8,9-hexahydro-2H-6,9-epiminocyclohepta[c]pyridine-10-carboxamide] | > 6.30
O=C(Nc1ccc2nsnc2c1)N1[C@H]2CC[C@@H]1c1n[nH]c(=O)cc1C2 [Compound 186, (6S,9R)—N-(benzo[c][1,2,5]thiadiazol-5-yl)-3-oxo-3,5,6,7,8,9-hexahydro-2H-6,9-epiminocyclohepta[c]pyridazine-10-carboxamide] | 5.30 to 6.30
O=C(Nc1cc(Cl)c(-c2ccc(OCCC(F)(F)F)nc2)cc1F)N1[C@H]2CC[C@@H]1c1n[nH]c(=O)cc1C2 [Compound 320, (6S,9R)-N-(5-Chloro-2-fluoro-4-(6-(3,3,3-trifluoropropoxy)pyridin-3-yl)phenyl)-3-oxo-3,5,6,7,8,9-hexahydro-2H-6,9-epiminocyclohepta[c]pyridazine-10-carboxamide] | > 6.30

— US20240368173A1, “TRICYCLIC GPR65 MODULATORS” (PATHIOS THERAPEUTICS LIMITED, priority 2021, published 2024)
